Values joined by “and” are separate entries in the source; they are usually repeats but may differ in a detail not shown here. Identical values can stand only once.
Tested on: self-administration (addictive potential)
Assay: I.v. self-administration of CP612, between-session progressive ratio and demand curve
Procedure: We tested the addictive potential of CP612 by examining the extent to which rats are willing to work to obtain CP612. Rats were initially trained to self-administer either saline, morphine (500 μg/kg/i.v. infusion), or 1 of 3 different doses of CP612 (75, 150, or 300 μg/kg/i.v. infusion) for 4 days at fixed ratio 1 (FR1, where 1 nose poke delivers 1 infusion).
During the second phase, the ratio to obtain an infusion increased geometrically every other day (FR1, FR3, FR6, FR12, FR24, FR48, and FR96).
Data (number of self-infusions) were also fitted in an economic-demand curve, which provides an estimate of the motivation to obtain drugs and their addictive potential ([20]). We measured elasticity (α), which is the relative change in consumption as a function of price (i.e., ratio of nose pokes required to obtain an infusion). Behavior is considered “inelastic” when consumption is insensitive to price and “elastic” when consumption is sensitive to price. We also measured Pmax, which is the price at which intake switches from inelastic to elastic. […] (Figure 8B).
Rats not immediately anesthetized were eliminated from the study.
Following this initial acquisition phase at FR1, the ratio to obtain the drug was increased geometrically every other day: FR3 (3 nose pokes are required to obtain 1 infusion of morphine), FR6, FR12, FR24, FR48, and FR96. This allows for analysis of drug consumption as a function of “price” using demand curves for behavioral economics, which can estimate the motivation to obtain drugs and their “addictive potential” ([20]). For this, data from each rat were fitted to the equation log Q = log Q0 + k (e ^–α(Q0 ^C) – 1), where Q represents consumption (number of self-infusions), and Q0 represents the level of consumption at the lowest price. C represents price for the drug (i.e., the ratio), and k is set to a constant accounting for the estimated range of consumption in logarithmic units (k = 4 in these studies). The symbol α is the relative change in consumption across changes in price (ratio). Behavior is considered “inelastic” when consumption is insensitive to price (i.e., the curve is flat, and consumption is maintained despite increases in price), and it switches to “elastic” when consumption is sensitive to price (i.e., when the curve is steep and consumption declines with increases in price). […] We also compared groups for their average intake in the consumption-price curves by measuring α (elasticity) and Pmax.

SMILES: N[C@H](CNC(=O)C1(c2ccc(Cl)cc2)CCCC1)c1ccc(C(=O)Nc2ccncc2)cc1 [CP612]
- AVG Latency (FR12) (CP612-Mid, individual rat): 0.5 and 1.1 and 1.0 and 3.5 and 4.2
- AVG Latency (FR24) (CP612-Mid, individual rat): 0.3 and 1.4 and 1.0 and 1.5
- AVG Latency (FR48) (CP612-Mid, individual rat): 0.112 and 1.3 and 0.7 and 0.539 and 2.5
- AVG Latency (FR96) (CP612-Mid, individual rat): 2.0 and 0.8 and 0.6 and 2.4
- D1 Latency (FR1) (CP612-Mid, individual rat): 3.8 and 0.15 and 0.8 and 0.215
- D1 Latency (FR3) (CP612-Mid, individual rat): 0.137 and 0.557 and 0.083 and 0.1 and 1.4
- D1 Latency (FR6) (CP612-Mid, individual rat): 0.9 and 1.2 and 1.4 and 3.2 and 4.8
- D1 Latency (FR12) (CP612-Mid, individual rat): 0.255 and 1.6 and 1.7 and 5.8
- D1 Latency (FR24) (CP612-Mid, individual rat): 0.108 and 2.3 and 0.4 and 0.282 and 2.0
- D1 Latency (FR48) (CP612-Mid, individual rat): 0.123 and 1.4 and 0.337 and 0.447 and 2.9
- D1 Latency (FR96) (CP612-Mid, individual rat): 2.4 and 0.76 and 0.8 and 2.5 and 0.4
- D2 Latency (FR1) (CP612-Mid, individual rat): 0.5 and 0.215 and 0.6 and 0.237 and 2.1
- D2 Latency (FR3) (CP612-Mid, individual rat): 1.4 and 0.375 and 2.2 and 0.065 and 0.125
- D2 Latency (FR6) (CP612-Mid, individual rat): 0.335 and 0.737 and 0.17 and 2.8 and 5.1
- D2 Latency (FR12) (CP612-Mid, individual rat): 0.7 and 0.6 and 0.4 and 5.2 and 2.6
- D2 Latency (FR24) (CP612-Mid, individual rat): 0.5 and 0.432 and 0.168 and 1.7 and 1.0
- D2 Latency (FR48) (CP612-Mid, individual rat): 0.1 and 1.2 and 1.0 and 0.632 and 2.0
- D2 Latency (FR96) (CP612-Mid, individual rat): 1.7 and 0.8 and 0.435 and 2.3
- D3 Latency (FR1) (CP612-Mid, individual rat): 0.237 and 0.127 and 0.132 and 0.128 and 0.347
- D4 Latency (FR1) (CP612-Mid, individual rat): 0.8 and 1.4 and 0.4 and 3.8
- last Latency (FR1) (CP612-Mid, individual rat): 0.158 and 0.458 and 0.11 and 0.378 and 3.0
- last-1 Latency (FR1) (CP612-Mid, individual rat): 0.8 and 1.4 and 0.4 and 3.8
- last-2 Latency (FR1) (CP612-Mid, individual rat): 0.237 and 0.127 and 0.132 and 0.128 and 0.347
- last-3 Latency (FR1) (CP612-Mid, individual rat): 0.237 and 0.215 and 0.6 and 0.128 and 0.347
- AVG Latency (FR1_D1 to D4) (CP612-Mid, individual rats): 1.8 and 5.8 and 0.9
- AVG Latency (FR1_Last 2 FR1 days) (CP612-Mid, individual rats): 0.456 and 1.8 and 0.373
- AVG Latency (FR1_Last 4 FR1 days) (CP612-Mid, individual rats): 0.455 and 2.3 and 0.265
- AVG Latency (FR3) (CP612-Mid, individual rats): 0.7 and 0.9 and 0.6
- AVG Latency (FR6) (CP612-Mid, individual rats): 1.0 and 2.4 and 0.144
- AVG Latency (FR12) (CP612-Mid, individual rats): 0.657 and 1.0 and 0.8
- AVG Latency (FR24) (CP612-Mid, individual rats): 0.8 and 0.757 and 0.6
- AVG Latency (FR48) (CP612-Mid, individual rats): 2.5 and 6.0 and 0.7
- AVG Latency (FR96) (CP612-Mid, individual rats): 1.0 and 1.3
- D1 Latency (FR1) (CP612-Mid, individual rats): 5.7 and 14.9 and 2.9
- D1 Latency (FR3) (CP612-Mid, individual rats): 1.0 and 0.8 and 0.465
- D1 Latency (FR6) (CP612-Mid, individual rats): 1.7 and 4.2 and 0.257
- D1 Latency (FR12) (CP612-Mid, individual rats): 0.9 and 1.9 and 1.1
- D1 Latency (FR24) (CP612-Mid, individual rats): 1.1 and 0.9 and 0.442
- D1 Latency (FR48) (CP612-Mid, individual rats): 1.5 and 0.8 and 1.2
- D1 Latency (FR96) (CP612-Mid, individual rats): 1.1 and 0.335 and 0.8
- D2 Latency (FR1) (CP612-Mid, individual rats): 0.7 and 3.0 and 0.022
- D2 Latency (FR3) (CP612-Mid, individual rats): 0.4 and 1.0 and 0.738
- D2 Latency (FR6) (CP612-Mid, individual rats): 0.427 and 0.638 and 0.03
- D2 Latency (FR12) (CP612-Mid, individual rats): 0.377 and 0.168 and 0.5
- D2 Latency (FR24) (CP612-Mid, individual rats): 0.5 and 0.6 and 0.753
- D2 Latency (FR48) (CP612-Mid, individual rats): 3.5 and 11.3 and 0.2
- D2 Latency (FR96) (CP612-Mid, individual rats): 0.8 and 2.3 and 1.1
- D3 Latency (FR1) (CP612-Mid, individual rats): 0.6 and 4.4 and 0.157
- D4 Latency (FR1) (CP612-Mid, individual rats): 0.3 and 1.0 and 0.57
- last Latency (FR1) (CP612-Mid, individual rats): 0.2 and 0.6 and 0.177
- last-1 Latency (FR1) (CP612-Mid, individual rats): 0.7 and 3.1 and 0.57
- last-2 Latency (FR1) (CP612-Mid, individual rats): 0.3 and 1.0 and 0.157
- last-3 Latency (FR1) (CP612-Mid, individual rats): 0.6 and 4.4 and 0.157
- AVG Inf (FR96) (rat, in vivo): 0.0
- Addictive potential (rat, in vivo): highly unlikely to be addictive
- D1 Inf (FR96) (rat, in vivo): 0
- D2 Inf (FR96) (rat, in vivo): 0
- AVG Inf (FR96) (rat, in vivo, 2 h): 0.0
- D1 Inf (FR96) (rat, in vivo, 2 h): 0
- D2 Inf (FR96) (rat, in vivo, 2 h): 0
- D1 Inf (FR48) (rat, in vivo, 1 day at FR48): 0
- D1 Inf (FR96) (rat, in vivo, 1 day at FR96): 0
- D2 Inf (FR48) (rat, in vivo, 2 day at FR48): 0
- D2 Inf (FR96) (rat, in vivo, 2 day at FR96): 0

— PMC12016938, “A small molecule PKCε inhibitor reduces hyperalgesia induced by paclitaxel or opioid withdrawal” (JCI Insight, 2025)
